Reference: ChEMBL document CHEMBL1828522, “Synthesis and preliminary evaluation of a modified estradiol-core bearing a fused γ-lactone as non-estrogenic inhibitor of 17β-hydroxysteroid dehydrogenase type 1” (Bioorg Med Chem Lett, 2011)
Active and inactive are the calls of the source. The calls are words filed in the database; no cut-off is given here.

What was measured:
[1] = target: T1, 17-beta-hydroxysteroid dehydrogenase type 1 (Homo sapiens, UniProt P14061); test: Inhibition of 17beta-HSD1 in human T47D cells expressing estrogen receptor assessed as conversion of [14C]-E1 to [14C]-E2 after 24 hrs; format: cell-based
T1 sequence (P14061 whole entry): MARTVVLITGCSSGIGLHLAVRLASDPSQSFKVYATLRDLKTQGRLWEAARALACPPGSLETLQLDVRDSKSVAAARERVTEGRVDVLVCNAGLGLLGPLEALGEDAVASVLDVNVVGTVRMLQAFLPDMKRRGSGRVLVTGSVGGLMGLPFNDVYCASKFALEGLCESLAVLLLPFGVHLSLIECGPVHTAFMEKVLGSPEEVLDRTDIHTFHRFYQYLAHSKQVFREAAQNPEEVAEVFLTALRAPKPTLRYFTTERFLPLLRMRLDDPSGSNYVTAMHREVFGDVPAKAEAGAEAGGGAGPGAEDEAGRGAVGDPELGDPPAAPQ

[2] = target: T2, 17-beta-hydroxysteroid dehydrogenase type 1 (Homo sapiens) (UniProt P14061); test: Inhibition of 17beta-HSD1 in human T47D cells expressing estrogen receptor assessed as conversion of [14C]-E1 to [14C]-E2 at 5 uM after 24 hrs; format: cell-based
T2 sequence (whole entry): T1 sequence (P14061 whole entry)

T47D [3] = test: Estrogenic activity in human T47D cells expressing estrogen receptor assessed as stimulation cell growth at 1 uM after 7 days relative to control
T47D [4] = test: Estrogenic activity in human T47D cells expressing estrogen receptor assessed as stimulation cell growth at 0.1 uM after 7 days relative to control
[5] = target: T2, 17-beta-hydroxysteroid dehydrogenase type 1 (Homo sapiens); test: Inhibition of 17beta-HSD1 in human T47D cells expressing estrogen receptor assessed as conversion of [14C]-E1 to [14C]-E2 at 0.3 uM after 24 hrs; format: cell-based

IC50 [1] | inhibition [2] | inhibition [5] | SMILES | Activity (T47D [3]) | Activity (T47D [4])
1000 nM | 75% | 20% | C[C@]12CC[C@@H]3c4ccc(O)cc4CC[C@H]3[C@@H]1C[C@@H]1[C@@H](Cc3cccc(C(N)=O)c3)C(=O)O[C@@H]12 | inactive | inactive
 | 90% | 85% | C[C@]12CC[C@@H]3c4ccc(O)cc4CC[C@H]3[C@@H]1C[C@H](Cc1cccc(C(N)=O)c1)[C@@H]2O | 83% | 48%
